Assay [1] relates to PBMCs plus granulocytes stimulated with A549 viral soup. It counts as cell-based, human. Particulars: immune cells, pre-incubation, FIG. 8.
Assay [2] relates to p38MAPK and HSP27 phosphorylation in A549 cells. The assay can be described thus: Western blotting of p38MAPK and HSP27 phosphorylation in A549 cells after A549 viral soup. It is filed as cell-based, human. Particulars: FIG. 6. For orientation: In western blotting, separated proteins are transferred to a membrane and probed.
Assay [3] relates to HSP27 phosphorylation in HUVEC cells. The assay can be described thus: Western blotting of HSP27 phosphorylation in HUVEC cells after HBEC viral soup. The conditions noted are these: pre-incubation. It counts as cell-based, human.
In assay [4] the test system is HSP27 phosphorylation in Peripheral Blood Mononuclear Cells (PBMCs). In words: Western blotting of HSP27 phosphorylation in immune cells (PBMCs) after A549 viral soup. It counts as cell-based, human. The conditions noted are these: pre-incubation, FIG. 8.
The test system of assay [5] is HUVECs stimulated with HBEC viral soup. It counts as cell-based, human. The conditions noted are these: for iMax IP10: maximal inhibition, HUVEC, HBEC viral soup, secreted IP10; for levels of IP10 at higher drug concentrations: endothelial cells (HUVECs) stimulated with 70% HBEC viral soup, FIG. 10.
Assay [6] relates to influenza virus. Particulars: 14% among controls, cited from earlier work.

Where two headings read alike, the source gives them in different places.

With `Cc1cc(F)ccc1-c1nc(NC(CO)CO)nc2c1ccc(=O)n2-c1c(F)cccc1F` [Dilmapimod, 8-(2,6-difluorophenyl)-2-(1,3-dihydroxypropan-2-ylamino)-4-(4-fluoro-2-methylphenyl)pyrido[2,3-d]pyrimidin-7-one], in assay [1], the “A549 viral soup induced release of CXCL8” value is on record as “significantly attenuate”, the “A549 viral soup induced release of IL-1-β” value is listed as “significantly attenuate”, the “A549 viral soup induced release of IL-6” value is “significantly attenuate” and the “A549 viral soup induced release of TNFα” value is on record as “significantly attenuate”. For the same compound, in assay [2], the “induction of HSP27 phosphorylation by A549 viral soup” value is recorded as “dose dependently inhibit” and the “induction of p38MAPK phosphorylation by A549 viral soup” value was “dose dependently inhibit”. Moreover, the “induction of HSP27 phosphorylation by HBEC viral soup” value in assay [3] is reported as “dose dependently inhibit”. Besides, the “induction of HSP27 phosphorylation by A549 viral soup” value in assay [4] is given as “dose dependently inhibit”.

Consider `CNC(=O)c1ccc(C)c(-n2c(C)cc(OCc3ccc(F)cc3F)c(Br)c2=O)c1` [PH797804, 3-[3-bromo-4-[(2,4-difluorophenyl)methoxy]-6-methyl-2-oxopyridin-1-yl]-N,4-dimethylbenzamide], for which, in assay [1], the “A549 viral soup induced release of CXCL8” value is reported as “significantly attenuate”, the “A549 viral soup induced release of IL-1-β” value was “significantly attenuate”, the “A549 viral soup induced release of IL-6” value was “significantly attenuate” and the “A549 viral soup induced release of TNFα” value is recorded as “significantly attenuate”. The “iMax IP10” value in assay [5] amounted to 88%. Moreover, in assay [2], the “induction of HSP27 phosphorylation by A549 viral soup” value is “dose dependently inhibit” and the “induction of p38MAPK phosphorylation by A549 viral soup” value is recorded as “dose dependently inhibit”. Moreover, the “induction of HSP27 phosphorylation by HBEC viral soup” value in assay [3] is “dose dependently inhibit”. The “induction of HSP27 phosphorylation by A549 viral soup” value in assay [4] is recorded as “dose dependently inhibit”.

On to `Nc1ccc2ncnc(NCCc3ccc(Oc4ccccc4)cc3)c2c1` [QNZ (EVP4593)], for which the “iMax IP10” value in assay [5] is listed as 72%.

Take `COc1cc(F)c(F)c(Nc2ccc(I)cc2F)c1NS(=O)(=O)C1(C[C@H](O)CO)CC1` [Refametinib]: the “levels of IP10 at higher drug concentrations” value in assay [5] is reported as “appeared to increase levels of IP10”.

Take `CC[C@H]1OC(=O)[C@H](C)[C@@H](O[C@H]2C[C@@](C)(OC)[C@@H](O)[C@H](C)O2)[C@H](C)[C@@H](O[C@@H]2O[C@H](C)C[C@H](N(C)C)[C@H]2O)[C@](C)(O)C[C@@H](C)C(=O)[C@H](C)[C@@H](O)[C@]1(C)O` [EM, erythromycin]: the “survival rate of the virus-infected mice at Day 20 of infection” value is listed as 42% in assay [6] (1.0 mg/kg/d) and 57% in assay [6] (3.3 mg/kg/d).

Take `CC[C@H](C)C(=O)O[C@H]1C[C@H](O)C=C2C=C[C@H](C)[C@H](CC[C@@H](O)C[C@@H](O)CC(=O)O)[C@H]21` [Pravastatin]: the “iMax IP10” value in assay [5] came to 35%.

On to Selumetinib, for which the “levels of IP10 at higher drug concentrations” value in assay [5] is reported as “appeared to increase levels of IP10”.

Values taken from US11339207B2, “Methods and compounds for the treatment or prevention of severe influenza” (priority 2016, dated 2022).
